# Reference: paper PMC11292626, “5-Fluoroindole Reduces the Bacterial Burden in a Murine Model of Mycobacterium tuberculosis Infection” (ACS Omega, 2024)
# Entries after “also recorded” stand apart in the source; their conditions may differ. Where two headings read alike, the source gives them in different places.
# Key:
# [1] = test system: Mycobacterium tuberculosis H37Rv Strain; test: MIC by resazurin reduction microplate assay (REMA), H37Rv; assay type: cell-based; conditions: Mtb H37Rv, REMA
# [2] = Cellular viability (MTT and neutral red uptake), HepG2; assay type: cell-based; conditions: human, HepG2 cells; 72 h of exposure; MTT and neutral red assays
# Procedure: (§1) To assess the selectivity and potential toxicity of 5-FI, the effects on the viability of both HepG2 and Vero mammalian cell lines were evaluated. Cell viability was measured after 72 h of incubation with concentrations of 2, 5, and 20 μM of the compound. […] Two methods were used to assess the cell integrity: the MTT assay, which evaluates mitochondrial viability, and the neutral red assay, which assesses lysosomal functionality.
# (§2) To determine the cellular viability, the cells were incubated with the 5-fluoro-1H-indole compound with 3-(4,5-dimethylthiazol-2-yl)-2,5-diphenyl-2H-tetrazolium bromide (MTT)[29] and neutral red uptake (NRU)[30] methods. […] The formed formazan crystals were dissolved with 100 μL of DMSO, and the absorbance of this solution was measured at 595 nm using an EZ Read 400 microplate reader (Biochrom, Holliston, MA, USA). The absorbance of the formazan crystals, diluted with DMSO, was directly proportional to the number of live cells with active mitochondria, corresponding to their viability. The mean value of absorbance of control wells was taken as 100% viability, and the values of treated cells were calculated as the percentage of vehicle control containing 0.5% DMSO. […]
# HepG2 cells = test: as above; assay type: cell-based; conditions: 2, 5 and 20 μM, 72 h; MTT and neutral red; listed as 5-FI
# Procedure: as §1, §2
# [3] = Cellular viability (MTT and neutral red uptake), Vero; assay type: cell-based; conditions: African green monkey, Vero cells; 72 h of exposure; MTT and neutral red assays
# Procedure: as §1, §2
# Vero cells = test: as above; assay type: cell-based; conditions: 2, 5 and 20 μM, 72 h; MTT and neutral red; listed as 5-FI
# Procedure: as §1, §2
# [4] = Aqueous solubility at different pHs; assay type: physicochemical; conditions: thermodynamic from solid, 25 °C for 4 h
# Procedure: The compound was weighed (1 mg) and solubilized in phosphate-buffered saline (PBS, pH 7.4), HCl 0.1 M (pH 1.2), and NH4HCO3 0.1 M (pH 9.2) to a final concentration of 1 mg/mL. The solutions were kept under stirring (250 rpm) for 4h at 37 °C. The solutions were filtered ([…] PDVA filter) and analyzed by HPLC. DMSO solution 1 mg/mL was used as the control for 100% soluble.
# [5] = Metabolic stability in rat liver microsomes; assay type: in vitro ADME
# Procedure: The compound was incubated at 37 °C in the concentration of 20 μM with rat liver microsomal fractions in PBS solution at pH 7.4 solution. As previously described,[31] rat liver microsomal fractions were seeded by centrifugation at 9.000 × g. To the supernatant containing the postmithocondrial with cytosolic and membrane-bound enzymes, 4 μM 5-FI was added and incubated at 37 °C. The interaction between the compound in the incubation mixture and the enzyme containing NADPH at 1 mg/mL concentration was measured by HPLC-MS/MS technique to determine the in vitro compound consumption by the microsomal fractions at 0, 5, 15, and 30 min reaction (incubation) time. The intrinsic compound clearance was taken as the half-life, and the disappearance was compared with the positive control, verapamil(2 μM).
# [6] = Parallel artificial membrane permeability assay (PAMPA); assay type: in vitro ADME; conditions: pH 7.4, 5 h
# Procedure: 5-FI was quantified by HPLC-MS after a period of incubation and separated into two fractions by a permeable lipidic membrane. The result is expressed in velocity units of permeation (cm/s). The lipidic membrane is previously prepared with specific activation solutions that create a hydrophobic surface, simulating the intestinal epithelial tissue. To the donor aqueous phase (pH 7.4), 100 μM compound is added. To the previously prepared membrane is added the receptor aqueous phase (pH 7.4), and the mixture is incubated for 5h at room temperature with both receptor and donor aqueous phases in contact, separated just by the membrane. The compound transported by passive diffusion is measured by taking an aliquot of receptor solution and analyzing it by HPLC-MS/MS.
# [7] = Chemical stability at pH 1.2, 7.4 and 9.1; assay type: physicochemical; conditions: 37 °C for 24 h
# Procedure: The compounds to be tested were prepared in a 100 μM solution and incubated at 37 °C for 24 h in three solutions representing the physiologically relevant pHs to drug administration: pH 1.2 (stomach), pH 7.4 (plasma), and pH 9.2 (intestinal tissue). The compounds were quantified by HPLC-MS/MS. The chemical stability experiments were carried out in triplicates to ensure reproducibility. The results were presented as percentage, comparing the signal at time zero of the assay, considering this measure 100%, with measurements after the incubation time. Alprenolol was used as the analytical control (data not shown). The results were presented as the percentage, comparing the signal at time zero of the assay (100%) with the signal produced by concentrations after the incubation period.
# [8] = SOS Chromotest ref 25; cited from earlier work
# [9] = In vivo absorption assay: plasma concentration after gavage; conditions: 400 mg/kg, mice
# [10] = Chemical stability in H2O at 37 °C, open and closed system (volatility assay)
compound,measurement,setting,value
"Fc1ccc2[nH]ccc2c1 [Compound 1, 5-Fluoroindole]",MIC,[1]; most frequent value of three independent assays,4.7 µM
same,MIC,"[1]; Mycobacterium tuberculosis, H37RV",0.63 µg/mL
same,CC50 at 72 h,[2],> 20 µM
same,cell viability / cytotoxicity in HepG2 (in words),HepG2 cells,not altered; also recorded: no cytotoxicity; also recorded: low cytotoxicity
same,CC50 at 72 h,[3],> 20 µM
same,cell viability / cytotoxicity in Vero (in words),Vero cells,not altered; also recorded: no cytotoxicity; also recorded: low cytotoxicity
same,solubility at 4 h,"[4]; pH 1.2, simulated gastric fluid, 0.1 M HCl, read-out: aqueous solubility pH 1.2",> 550 µM
same,solubility at 4 h,"[4]; pH 9.1, aqueous buffer, 0.1 M NH4HCO3, read-out: aqueous solubility pH 9.1",2.2 µM
same,solubility at 4 h,"[4]; phosphate-buffered saline, pH 7.4, aqueous buffer, PBS, read-out: aqueous solubility pH 7.4",3.5 µM
same,CLint scaled,"[5]; pH 7.4, read-out: metabolic stability Clint (intrinsic clearance)",9 mL/min/kg
same,half-life,"[5]; pH 7.4, read-out: metabolic stability t1/2 (half-life)",2.4 h
same,"Papp at 5 h, 100 μM",[6],2.4 ×10⁻⁶ cm/s
same,chemical stability pH 1.2,[7]; 0.1 M HCl,37.2%
same,chemical stability pH 9.1,"[7]; 0.1 M NH4HCO3, listed as 5-FI",99.2%
same,chemical stability pH 7.4,"[7]; PBS, listed as 5-FI",58.5%
same,genotoxicity,[8],does not exhibit genotoxicity
same,concentration at 15 min,"[9]; female, CF-1, mouse, in vivo, plasma concentration, mean ± SD, gavage 400 mg/kg, 15 min",45.2 ± 14.8 µM
same,concentration at 30 min,"[9]; female, CF-1, mouse, in vivo, plasma concentration, mean ± SD, gavage 400 mg/kg",79.4 ± 19.4 µM
same,concentration at 30 min,"[9]; female, CF-1, mouse, in vivo, po, plasma concentrations (range), oral 400 mg/kg, joint range over 5-FI and 5-FI.HCl",79 to 82 µM
same,plasma concentrations (range),"[9]; gavage 400 mg/kg, joint range over 5-FI and 5-FI.HCl, 15 and 30 min, listed as 5-FI",32.6 to 82.3 µM
same,"chemical stability, closed system",[10]; 0 h,100 ± 0.0%
same,"chemical stability, open system",[10]; 0 h,100 ± 0.0%
same,"chemical stability, closed system",[10]; 1 h,97.5 ± 0.1%
same,"chemical stability, open system",[10]; 1 h,97.5 ± 0.2%
same,"chemical stability, closed system",[10]; 2 h,95.2 ± 0.0%
same,"chemical stability, open system",[10]; 2 h,95.4 ± 0.2%
same,"chemical stability, closed system",[10]; 4 h,93.3 ± 0.1%
same,"chemical stability, closed system",[10]; 6 h,87.8 ± 0.0%
same,"chemical stability, open system",[10]; 6 h,88.9 ± 0.2%
same,"chemical stability, closed system",[10]; 24 h,86.1 ± 0.0%
same,"chemical stability, open system",[10]; 24 h,89.1 ± 0.2%
same,"chemical stability, closed system",[10]; 48 h,80.3 ± 0.1%
same,"chemical stability, open system",[10]; 48 h,85.5 ± 0.1%
